Converted amounts (≈) assume the structure as drawn. Structures can show the parent of a compound that is named as a salt.
Tests used:
Assay in all cases: MIC by serial dilution in agar
Assay type in all cases: cell-based
E. coli DC RTEM = conditions: Escherichia coli
Protocol: (§1) Minimum Inhibitory concentration (MIC) values of compounds of the invention against E. coli JT425 and DC RTEM, K. Pneumoniae T767 and P. aeruginosa 10662 and K79961. were determined by serial dilution in Iso-sensitest Agar (from Oxoid Ltd., Basingstoke, England). The plates were inoculated with 10^4 colony forming units and incubated overnight at 37° C. The MIC values recorded in Table 1 were the lowest concentration of antibiotic to inhibit growth. Comparative data for Piperacillin which is the compound 6β-[D-2-[(4-ethyl-2,3-dioxopiperazin-1-yl)carbonylamino]-2-phenylacetamido]-penicillanic acid, sodium salt and for the compound 6α-formamido-6β-[D-2-[(4-ethyl-2,3-dioxopiperazin-1-yl)carbonylamino]-2-phenylacetamido]-penicillanic acid, sodium salt (Compound A) disclosed in U.K. GB Pat. No.-2107307B, are also given.

E. coli JT 425 = conditions: Escherichia coli, JT425; Iso-sensitest Agar, 10^4 colony forming units, overnight at 37° C
Protocol: as §1

K. pneumoniae T767 = conditions: Klebsiella pneumoniae, Iso-sensitest Agar, 10^4 colony forming units, overnight at 37° C
Protocol: as §1

P. aeruginosa 10662 = conditions: Pseudomonas aeruginosa, Iso-sensitest Agar, 10^4 colony forming units, overnight at 37° C
Protocol: as §1

P. aeruginosa K79961 = conditions: Pseudomonas aeruginosa, Iso-sensitest Agar, 10^4 colony forming units, overnight at 37° C
Protocol: as §1

**Q.** Which results are given for `CCN1CCN(C(=O)N[C@@H](C(=O)N[C@]2(NC=O)C(=O)N3[C@@H](C(=O)O)C(C)(C)S[C@@H]32)c2ccccc2)C(=O)C1=O` [Compound A, 6α-formamido-6β-[D-2-[(4-ethyl-2,3-dioxopiperazin-1-yl)carbonylamino]-2-phenylacetamido]-penicillanic acid, sodium salt, reference compound]?
**A.** MIC (E. coli DC RTEM): 4 µg/mL; MIC (E. coli JT 425): 8 µg/mL; MIC (K. pneumoniae T767): 4 µg/mL; MIC (P. aeruginosa 10662): 16 µg/mL; MIC (P. aeruginosa K79961): 2 µg/mL

**Q.** What does the source list for `CCN1CCN(C(=O)N[C@@H](C(=O)N[C@]2(NC=O)C(=O)N3[C@@H](C(=O)O)[C@](C)(COC(=O)c4ccc(OC(C)=O)c(OC(C)=O)c4)S[C@@H]32)c2ccccc2)C(=O)C1=O` [Example 1]?
**A.** MIC (E. coli DC RTEM): 0.12 µg/mL (≈ 0.151 µM); MIC (E. coli JT 425): 0.5 µg/mL (≈ 0.628 µM); MIC (K. pneumoniae T767): 0.12 µg/mL (≈ 0.151 µM); MIC (P. aeruginosa 10662): 0.25 µg/mL (≈ 0.314 µM); MIC (P. aeruginosa K79961): 0.06 µg/mL (≈ 0.0753 µM)

**Q.** With `CCN1CCN(C(=O)N[C@@H](C(=O)N[C@]2(NC=O)C(=O)N3[C@@H](C(=O)O)[C@](C)(COC(=O)c4ccc(O)c(O)c4)S[C@@H]32)c2ccccc2)C(=O)C1=O` [Example 2, Sodium 6β-[R,2-(4-ethyl-2,3-dioxopiperazin-1-yl)carbonylamino-2-phenylacetamido]-6α-formamido-2β-(3,4-dihydroxybenzoyloxy)methyl-2α-methylpenam-3-carboxylate] as the compound, how does the MIC (E. coli DC RTEM) read?
**A.** < 0.03 µg/mL

**Q.** What about the MIC (E. coli JT 425) of the same compound?
**A.** 0.5 µg/mL

**Q.** And the MIC (K. pneumoniae T767)?
**A.** 0.12 µg/mL

**Q.** And the MIC (P. aeruginosa 10662)?
**A.** 0.12 µg/mL

**Q.** And the MIC (P. aeruginosa K79961)?
**A.** < 0.03 µg/mL

**Q.** How did the MIC (E. coli DC RTEM) turn out when `CCN1CCN(C(=O)N[C@@H](C(=O)N[C@@H]2C(=O)N3[C@@H]2S[C@@](C)(COC(=O)c2ccc(OC(C)=O)c(OC(C)=O)c2)[C@@H]3C(=O)O)c2ccccc2)C(=O)C1=O` [Example 3, Sodium 2β-(3,4-diacetoxybenzoyloxy)methyl-6β-[R,2-(4-ethyl-2,3-dioxopiperazin-1-yl)carbonylamino-2-phenylacetamido]-2α-methylpenam-3-carboxylate] was run?
**A.** 4 µg/mL

**Q.** And the MIC (E. coli JT 425)?
**A.** 1 µg/mL

**Q.** What about the MIC (K. pneumoniae T767) of the same compound?
**A.** 0.25 µg/mL

**Q.** And the MIC (P. aeruginosa 10662)?
**A.** < 0.03 µg/mL

**Q.** What about the MIC (P. aeruginosa K79961) of the same compound?
**A.** < 0.03 µg/mL

**Q.** `CCN1CCN(C(=O)N[C@@H](C(=O)N[C@@H]2C(=O)N3[C@@H]2SC(C)(C)[C@@H]3C(=O)O)c2ccccc2)C(=O)C1=O` [Piperacillin, 6β-[D-2-[(4-ethyl-2,3-dioxopiperazin-1-yl)carbonylamino]-2-phenylacetamido]-penicillanic acid, sodium salt, reference compound] was tested. Which MIC (E. coli DC RTEM) did it give?
**A.** > 128 µg/mL

**Q.** What about the MIC (E. coli JT 425) of the same compound?
**A.** 16 µg/mL

**Q.** What about the MIC (K. pneumoniae T767) of the same compound?
**A.** 2 µg/mL

**Q.** What about the MIC (P. aeruginosa 10662) of the same compound?
**A.** 2 µg/mL

**Q.** And the MIC (P. aeruginosa K79961)?
**A.** > 0.06 µg/mL

— US4820701A, “Penam derivatives” (Beecham Group p.l.c., priority 1987, dated 1989)
